Data as given in US11091511B2, “Panaxdiol-type ginsenoside derivative, preparation method therefor and use thereof” (ARMY MEDICAL UNIVERSITY, priority 2016, dated 2021).
Marks after values point to notes of the source that are not given here.

Tests used:
apoE−/− mice [1] = assay: Atherosclerotic plaque area to total aortic area in apoE-/- mice on high-fat diet (Sudan IV staining); assay type: in vivo, mouse; details: intragastric 15 weeks, compounds 30 mg/(kg·d), simvastatin 10 mg/(kg·d), x ± s, n = 5, saline control 14.67 ± 3.58
From the text: The effects of the compounds prepared in Examples 1-30 of the present invention on the percentages of areas of atherosclerotic plaque formation to the area of the entire artery in apoE−/− mice with a high-fat diet and the levels of low-density lipoprotein cholesterol and the levels of high-density lipoprotein, the specific steps are as follows: 1. animals: 160 ten-week-old, healthy and clean-grade apoE−/− mice (purchased from Peking University Experimental Animal Center), males, weight: 22-25 g, were housed in separate cages in a sterile laminar feeding room and fed freely. The mice were fed by a high-fat diet (conventional feed+0.15% cholesterol+21% lard) for 25 weeks, the room temperature was kept at 24° C., relative humidity: 50%, illumination time 7:30-19:30. 2. Grouping, administration method: after 10 weeks of feeding, the animals were divided into the following 32 groups (n=5) by weight in a balanced and random manner, and killed 15 weeks after administration. Normal saline control group: normal saline, intragastric administration. Positive control group: simvastatin 10 mg/(kg·d), intragastric administration. The compound groups prepared in Examples 1-30 of the present invention (30 groups in total): each was intragastric administered 30 mg/(kg·d). (1) Analysis of the area of atherosclerotic plaque and its percentage to total area: after the animals were killed, the aortas were separated, from the roots of the aortas to the terminal bifurcations of the abdominal aortas. After formalin fixation, the aortas were stained with Sudan IV, the red stained parts were the areas of atherosclerotic lesions. The percentage of the area of the lesion area to total area was calculated using Image Pro Plus 5.0 software. Data were expressed as x±s, and SPSS 10.0 line single-factor analysis of variance was performed among groups, a significant difference was indicated when p<0.05.

TNF-α = assay: Local TNF-α level in the arteries of apoE-/- mice (Millipore liquid phase chip); assay type: in vivo, mouse; details: high-fat diet, intragastric 15 weeks, compounds 30 mg/(kg·d), simvastatin 10 mg/(kg·d), x ± s, n = 5, saline control 25.58 ± 6.44
From the text: The effects of the compounds prepared in Examples 1-30 of the present invention on the percentages of areas of atherosclerotic plaque formation to the area of the entire artery in apoE−/− mice with a high-fat diet and the levels of low-density lipoprotein cholesterol and the levels of high-density lipoprotein, the specific steps are as follows: 1. animals: 160 ten-week-old, healthy and clean-grade apoE−/− mice (purchased from Peking University Experimental Animal Center), males, weight: 22-25 g, were housed in separate cages in a sterile laminar feeding room and fed freely. The mice were fed by a high-fat diet (conventional feed+0.15% cholesterol+21% lard) for 25 weeks, the room temperature was kept at 24° C., relative humidity: 50%, illumination time 7:30-19:30. 2. Grouping, administration method: after 10 weeks of feeding, the animals were divided into the following 32 groups (n=5) by weight in a balanced and random manner, and killed 15 weeks after administration. Normal saline control group: normal saline, intragastric administration. Positive control group: simvastatin 10 mg/(kg·d), intragastric administration. The compound groups prepared in Examples 1-30 of the present invention (30 groups in total): each was intragastric administered 30 mg/(kg·d). (3) Determination of TNF-α level: Millipore liquid phase chip method was used for the determination (Mcytomag-70K-3, Mouse Cytokine/Chemokine Magnetic Bead Panel). Data were expressed as x±s, and SPSS 10.0 line single-factor analysis of variance was performed among groups, a significant difference was indicated when p<0.05.

RAW264.7 cells = assay: RAW264.7 cell survival rate by CCK8 method; assay type: cell-based, mouse; details: compound 10 prnol/L, 0.1% DMSO, CCK8, x ± s, n = 3, normal saline control = 1
Description: In order to further verify the toxicities of the compounds prepared in Examples 1-30 of the present invention, the mouse macrophage cell line RAW264.7 was cultured, and the compounds prepared in Examples 1-30 of the invention were prepared to a concentration of […] using culture medium, wherein the solvent was normal saline, the co-solvent was dimethyl sulfoxide (DMSO, the final concentratoin was 0.1%), and a 0.1% DMSO saline control group was provided. The cell survival rate was determined by CCK8 method. The data were expressed as x±s. SPSS 10.0 line single-factor analysis of variance was performed among groups. The difference was significant when p<0.05.

[2] = test system: RAW264.7 cell-derived foam cells; assay: Formation of RAW264.7 cell-derived foam cells (ox-LDL, oil red O, absorbance 490 nm); assay type: cell-based, mouse; details: 48 hours, model group = 100%, x ± s, n = 3
Description: The effects of the compounds prepared in Examples 1-30 of the present invention on the formation of RAW264.7 cell-derived foam cells, the specific steps are as follows:
1. Cell culture and foam cell model establishment:
RAW264.7 cells were cultured in DMEM culture medium with high glucose level (GIBCO) to a cell concentration of 1×10^6, planted in a 6-well plate, and 60 mg/L of ox-LDL (oxidized modified low-density lipoprotein, Peking Union Medical College) was added, foam cells were obtained after 48 hours of incubation.
2. Grouping and index detection:
The obtained foam cells were divided into 61 groups, 3 well plates were included in one group. After the treatment by adding the drugs (100 μL/well) for 48 hours, the medium was discarded, and after oil red 0 staining, the excess amount of oil red 0 was washed away. The cells were dissolved in isopropanol and the absorbance values were measured at 490 nm. The OD value of the model group was 100%, and the OD value of each group corrected by the number of cells was compared with the model group to obtain the ratio of intracellular lipid content. The larger the value, the more intracellular lipids, the higher the degree of formation of foam cells.
Normal saline control group: normal saline
Low dose groups of the compounds prepared in Examples 1-30 of the present invention:
10 μmol/L (solvents were normal saline).
High dose groups of compounds prepared in Examples 1-30 of the present invention: 30 μmol/L (solvents were normal saline).
Data were expressed as x±s, and SPSS 10.0 line single-factor analysis of variance was performed amoung groups, a significant difference was indicated when p<0.05.

apoE−/− mice [3] = assay: Blood lipids (LDL-C, HDL-C) in apoE-/- mice on high-fat diet; assay type: in vivo, mouse; details: apoE-/- mice serum, intragastric 15 weeks, compounds 30 mg/(kg·d), simvastatin 10 mg/(kg·d), x ± s; for HDL-C: n = 5, saline control 3.74 ± 0.62; for LDL-C: n = 5, saline control 7.33 ± 1.03
From the text: The effects of the compounds prepared in Examples 1-30 of the present invention on the percentages of areas of atherosclerotic plaque formation to the area of the entire artery in apoE−/− mice with a high-fat diet and the levels of low-density lipoprotein cholesterol and the levels of high-density lipoprotein, the specific steps are as follows:
1. animals: 160 ten-week-old, healthy and clean-grade apoE−/− mice (purchased from Peking University Experimental Animal Center), males, weight: 22-25 g, were housed in separate cages in a sterile laminar feeding room and fed freely. The mice were fed by a high-fat diet (conventional feed+0.15% cholesterol+21% lard) for 25 weeks, the room temperature was kept at 24° C., relative humidity: 50%, illumination time 7:30-19:30.
2. Grouping, administration method:
after 10 weeks of feeding, the animals were divided into the following 32 groups (n=5) by weight in a balanced and random manner, and killed 15 weeks after administration.
Normal saline control group: normal saline, intragastric administration.
Positive control group: simvastatin 10 mg/(kg·d), intragastric administration.
The compound groups prepared in Examples 1-30 of the present invention (30 groups in total): each was intragastric administered 30 mg/(kg·d).
(2) Determination of the levels of total cholesterol (TC), low-density cholesterol lipoprotein (LDL-C) and high-density lipoprotein cholesterol (HDL-C): using ROCHE 7060 automatic biochemical analyzer for the determination.
Data were expressed as x±s, and SPSS 10.0 line single-factor analysis of variance was performed among groups, a significant difference was indicated when p<0.05.

SMILES | Plaque area/total aorta area (%) (apoE−/− mice [1]) | TNF-α level (ng/g) (TNF-α) | Cell Survival Rate (RAW264.7 cells) | Foam cell formation (%) ([2]; dose 10 μmol/L) | Foam cell formation (%) ([2]; dose 30 μmol/L) | HDL-C (apoE−/− mice [3]) | LDL-C (apoE−/− mice [3])
CCOC(=O)CCNCCC[C@](C)(OC(C)=O)C1CC[C@]2(C)[C@@H]1C(OC(C)=O)CC1[C@@]3(C)CC[C@H](OC(C)=O)C(C)(C)C3CC[C@]12C (stereo partly shown) [Compound 25] | 8.33 ± 2.44 ^a % | 11.65 ± 5.45 ^a ng/g | 0.98 ± 0.07 | 62 ± 18 ^a % | 44 ± 15 ^a % | 5.14 ± 0.87 ^a mmol/L | 4.82 ± 1.54 ^a mmol/L
CC(=O)OC[C@H]1O[C@H](O[C@@](C)(CCC=O)C2CC[C@]3(C)[C@@H]2C(OC(C)=O)CC2[C@@]4(C)CC[C@H](OC(C)=O)C(C)(C)C4CC[C@]23C)[C@H](OC(C)=O)[C@@H](OC(C)=O)[C@@H]1OC(C)=O (stereo partly shown) [Compound 3] | 9.74 ± 3.19 ^a % | 16.68 ± 4.98 ^a ng/g | 0.42 ± 0.03 ^a | 85 ± 20% | 72 ± 13 ^a % | 4.97 ± 0.95 ^a mmol/L | 6.12 ± 1.28 mmol/L
COC(=O)[C@H](Cc1ccccc1)NCCC[C@](C)(OC(C)=O)C1CC[C@]2(C)[C@@H]1C(OC(C)=O)CC1[C@@]3(C)CC[C@H](OC(C)=O)C(C)(C)C3CC[C@]12C (stereo partly shown) [Compound 27] | 10.65 ± 3.82 ^a % | 17.95 ± 2.15 ^a ng/g | 0.87 ± 0.04 | 76 ± 12 ^a % | 65 ± 18 ^a % | 4.37 ± 0.56 ^a mmol/L | 5.55 ± 1.06 ^a mmol/L
COC(=O)CNCCC[C@](C)(O[C@H]1O[C@H](COC(C)=O)[C@@H](OC(C)=O)[C@H](OC(C)=O)[C@H]1OC(C)=O)C1CC[C@]2(C)[C@@H]1C(OC(C)=O)CC1[C@@]3(C)CC[C@H](OC(C)=O)C(C)(C)C3CC[C@]12C (stereo partly shown) [Compound 9] | 10.55 ± 2.19 ^a % | 12.85 ± 4.17 ^a ng/g | 0.85 ± 0.07 | 79 ± 23% | 65 ± 17 ^a % | 4.41 ± 0.67 ^a mmol/L | 6.84 ± 0.85 mmol/L
COC(=O)[C@H](Cc1c[nH]cn1)NCCC[C@](C)(O[C@H]1O[C@H](COC(C)=O)[C@@H](OC(C)=O)[C@H](OC(C)=O)[C@H]1OC(C)=O)C1CC[C@]2(C)[C@@H]1C(OC(C)=O)CC1[C@@]3(C)CC[C@H](OC(C)=O)C(C)(C)C3CC[C@]12C (stereo partly shown) [Compound 14] | 9.34 ± 3.01 ^a % | 16.92 ± 5.04 ^a ng/g | 0.83 ± 0.06 | 78 ± 18 ^a % | 66 ± 16 ^a % | 4.39 ± 0.59 ^a mmol/L | 5.58 ± 1.11 ^a mmol/L
COC(=O)[C@H](CO)NCCC[C@](C)(OC(C)=O)C1CC[C@]2(C)[C@@H]1C(OC(C)=O)CC1[C@@]3(C)CC[C@H](OC(C)=O)C(C)(C)C3CC[C@]12C (stereo partly shown) [Compound 22] | 10.32 ± 2.74 ^a % | 18.14 ± 6.82 ^a ng/g | 1.03 ± 0.15 | 76 ± 10 ^a % | 65 ± 14 ^a % | 4.29 ± 0.84 ^a mmol/L | 6.31 ± 1.17 mmol/L
COC(=O)[C@H](CC(C)C)NCCC[C@](C)(OC(C)=O)C1CC[C@]2(C)[C@@H]1C(OC(C)=O)CC1[C@@]3(C)CC[C@H](OC(C)=O)C(C)(C)C3CC[C@]12C (stereo partly shown) [Compound 19] | 8.34 ± 2.41 ^a % | 11.23 ± 3.69 ^a ng/g | 0.91 ± 0.07 | 63 ± 18 ^a % | 43 ± 9 ^a % | 5.13 ± 0.83 ^a mmol/L | 4.62 ± 1.34 ^a mmol/L
